# Results published in PubChem BioAssay (NCI).
#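 96-well plates; 48 h exposure; 5 concentrations. Endpoints by linear interpolation between flanking doses. Not reached: highest tested concentration assigned. TGI: concentration producing complete growth inhibition.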
# Key:
# Assay in all cases: NCI tumour cell line growth inhibition, 48 h
# NCI-H522 lung = system: NCI-H522 lung
# 786-0 renal = system: 786-0 renal
# EKVX NSCLC = system: EKVX NSCLC
# HOP-18 NSCLC = system: HOP-18 NSCLC
# NCI-H460 lung = system: NCI-H460 lung
# MOLT-4 leukemia = system: MOLT-4 leukemia
# HOP-92 NSCLC = system: HOP-92 NSCLC
# LOX IMVI melanoma = system: LOX IMVI melanoma
# UACC-257 melanoma = system: UACC-257 melanoma
# SF-295 CNS = system: SF-295 CNS
# M14 melanoma = system: M14 melanoma
# KM12 colon = system: KM12 colon
# SN12C renal = system: SN12C renal
# HCC-2998 colon = system: HCC-2998 colon
# SF-539 CNS = system: SF-539 CNS
# SR leukemia = system: SR leukemia
# OVCAR-4 ovarian = system: OVCAR-4 ovarian
# SNB-78 CNS = system: SNB-78 CNS
# SK-MEL-2 melanoma = system: SK-MEL-2 melanoma
# DLD-1 colon = system: DLD-1 colon
# SNB-19 CNS = system: SNB-19 CNS
# OVCAR-8 ovarian = system: OVCAR-8 ovarian
# HOP-62 NSCLC = system: HOP-62 NSCLC
# HL-60(TB) leukemia = system: HL-60(TB) leukemia
# M19-MEL melanoma = system: M19-MEL melanoma
# NCI-H226 lung = system: NCI-H226 lung
# SNB-75 CNS = system: SNB-75 CNS
# NCI-H23 lung = system: NCI-H23 lung
# A549 NSCLC = system: A549 NSCLC
# SK-OV-3 ovarian = system: SK-OV-3 ovarian
# HCT-15 colon = system: HCT-15 colon
# A498 renal = system: A498 renal
# SF-268 CNS = system: SF-268 CNS
# CAKI-1 renal = system: CAKI-1 renal
# K-562 leukemia = system: K-562 leukemia
# HT29 colon = system: HT29 colon
# SK-MEL-28 melanoma = system: SK-MEL-28 melanoma
# TK-10 renal = system: TK-10 renal
# ACHN renal = system: ACHN renal
# RXF-631 renal = system: RXF-631 renal
# U251 CNS = system: U251 CNS
# KM20L2 colon = system: KM20L2 colon
# UACC-62 melanoma = system: UACC-62 melanoma
# HCT-116 colon = system: HCT-116 colon
# CCRF-CEM leukemia = system: CCRF-CEM leukemia
# SW-620 colon = system: SW-620 colon
# MALME-3M melanoma = system: MALME-3M melanoma
# UO-31 renal = system: UO-31 renal
# COLO 205 colon = system: COLO 205 colon
# OVCAR-5 ovarian = system: OVCAR-5 ovarian
# DMS 114 small cell lung = system: DMS 114 small cell lung
# SK-MEL-5 melanoma = system: SK-MEL-5 melanoma
# OVCAR-3 ovarian = system: OVCAR-3 ovarian
# RXF 393 renal = system: RXF 393 renal
# RPMI-8226 leukemia = system: RPMI-8226 leukemia
# LXFL 529 NSCLC = system: LXFL 529 NSCLC
# IGROV1 ovarian = system: IGROV1 ovarian
# XF 498 CNS = system: XF 498 CNS
structure (smiles),measurement,setting,value
NC(N)=Nc1nc2cc(N)ccc2o1,TGI,NCI-H522 lung,> 100 µM
same,TGI,786-0 renal,> 100 µM
same,TGI,EKVX NSCLC,> 100 µM
same,TGI,HOP-18 NSCLC,> 100 µM
same,TGI,NCI-H460 lung,> 100 µM
same,TGI,MOLT-4 leukemia,> 100 µM
same,TGI,HOP-92 NSCLC,> 100 µM
same,TGI,LOX IMVI melanoma,> 100 µM
same,TGI,UACC-257 melanoma,> 100 µM
same,TGI,SF-295 CNS,> 100 µM
same,TGI,M14 melanoma,> 100 µM
same,TGI,KM12 colon,> 100 µM
same,TGI,SN12C renal,> 100 µM
same,TGI,HCC-2998 colon,> 100 µM
same,TGI,SF-539 CNS,> 100 µM
same,TGI,SR leukemia,> 100 µM
same,TGI,OVCAR-4 ovarian,> 100 µM
same,TGI,SNB-78 CNS,> 100 µM
same,TGI,SK-MEL-2 melanoma,> 100 µM
same,TGI,DLD-1 colon,> 100 µM
same,TGI,SNB-19 CNS,> 100 µM
same,TGI,OVCAR-8 ovarian,> 100 µM
same,TGI,HOP-62 NSCLC,> 100 µM
same,TGI,HL-60(TB) leukemia,> 100 µM
same,TGI,M19-MEL melanoma,> 100 µM
same,TGI,NCI-H226 lung,> 100 µM
same,TGI,SNB-75 CNS,> 100 µM
same,TGI,NCI-H23 lung,> 100 µM
same,TGI,A549 NSCLC,> 100 µM
same,TGI,SK-OV-3 ovarian,> 100 µM
same,TGI,HCT-15 colon,> 100 µM
same,TGI,A498 renal,> 100 µM
same,TGI,SF-268 CNS,> 100 µM
same,TGI,CAKI-1 renal,> 100 µM
same,TGI,K-562 leukemia,> 100 µM
same,TGI,HT29 colon,> 100 µM
same,TGI,SK-MEL-28 melanoma,> 100 µM
same,TGI,TK-10 renal,> 100 µM
same,TGI,ACHN renal,> 100 µM
same,TGI,RXF-631 renal,> 100 µM
same,TGI,U251 CNS,> 100 µM
same,TGI,KM20L2 colon,> 100 µM
same,TGI,UACC-62 melanoma,> 100 µM
same,TGI,HCT-116 colon,> 100 µM
same,TGI,CCRF-CEM leukemia,> 100 µM
same,TGI,SW-620 colon,> 100 µM
same,TGI,MALME-3M melanoma,> 100 µM
same,TGI,UO-31 renal,> 100 µM
Cc1cccc2c1NC(c1c(C)[nH]c3ccccc13)C2 (stereo not drawn),TGI,COLO 205 colon,> 100 µM
same,TGI,NCI-H522 lung,> 100 µM
same,TGI,786-0 renal,> 100 µM
same,TGI,OVCAR-5 ovarian,> 100 µM
same,TGI,EKVX NSCLC,> 100 µM
same,TGI,HOP-18 NSCLC,> 100 µM
same,TGI,NCI-H460 lung,> 100 µM
same,TGI,MOLT-4 leukemia,> 100 µM
same,TGI,HOP-92 NSCLC,17.2 µM
same,TGI,DMS 114 small cell lung,> 100 µM
same,TGI,SK-MEL-5 melanoma,> 100 µM
same,TGI,LOX IMVI melanoma,> 100 µM
same,TGI,OVCAR-3 ovarian,> 100 µM
same,TGI,UACC-257 melanoma,> 100 µM
same,TGI,SF-295 CNS,> 100 µM
same,TGI,M14 melanoma,> 100 µM
same,TGI,KM12 colon,> 100 µM
same,TGI,SN12C renal,> 100 µM
same,TGI,HCC-2998 colon,> 100 µM
same,TGI,SF-539 CNS,> 100 µM
same,TGI,SR leukemia,> 100 µM
same,TGI,SK-MEL-2 melanoma,> 100 µM
same,TGI,DLD-1 colon,> 100 µM
same,TGI,SNB-19 CNS,> 100 µM
same,TGI,OVCAR-8 ovarian,> 100 µM
same,TGI,HOP-62 NSCLC,> 100 µM
same,TGI,HL-60(TB) leukemia,> 100 µM
same,TGI,M19-MEL melanoma,> 100 µM
same,TGI,NCI-H226 lung,> 100 µM
same,TGI,SNB-75 CNS,> 100 µM
same,TGI,RXF 393 renal,> 100 µM
same,TGI,NCI-H23 lung,> 100 µM
same,TGI,A549 NSCLC,> 100 µM
same,TGI,SK-OV-3 ovarian,> 100 µM
same,TGI,HCT-15 colon,> 100 µM
same,TGI,RPMI-8226 leukemia,> 100 µM
same,TGI,LXFL 529 NSCLC,> 100 µM
same,TGI,A498 renal,> 100 µM
same,TGI,SF-268 CNS,> 100 µM
same,TGI,IGROV1 ovarian,> 100 µM
same,TGI,K-562 leukemia,> 100 µM
same,TGI,HT29 colon,> 100 µM
same,TGI,SK-MEL-28 melanoma,> 100 µM
same,TGI,TK-10 renal,> 100 µM
same,TGI,ACHN renal,> 100 µM
same,TGI,RXF-631 renal,> 100 µM
same,TGI,U251 CNS,> 100 µM
same,TGI,KM20L2 colon,> 100 µM
same,TGI,UACC-62 melanoma,> 100 µM
same,TGI,HCT-116 colon,> 100 µM
same,TGI,CCRF-CEM leukemia,> 100 µM
same,TGI,SW-620 colon,> 100 µM
same,TGI,MALME-3M melanoma,> 100 µM
same,TGI,UO-31 renal,> 100 µM
same,TGI,XF 498 CNS,> 100 µM
